Measurements taken from PMC8853707, “Synthesis and enzyme-based evaluation of analogues L-tyrosine thiol carboxylic acid inhibitor of metallo-β-lactamase IMP-1” (Journal of Enzyme Inhibition and Medicinal Chemistry, 2019).
Where two headings read alike, the source gives them in different places.

How the values were obtained:
IMP-1 [1] = target: T1, IMP-1 (Serratia marcescens, UniProt P52699); assay: Kinetic inhibition assay of IMP-1 (hydrolysis of benzyl penicillin followed at 235 nm), Kic; assay type: biochemical
Text: The IMP-1 enzyme, lacking the first 21 signal peptide amino acid residues, was expressed and purified using the protocol of Vella et al.[45–46] The reported methods for monitoring of MBLs activities are based on the consequences of the hydrolysis of β-lactam ring of substrates. The MBL-catalysed reaction is usually monitored by following the changing absorbance at the wavelength where the difference in the molar absorptivity, ΔɛM, is maximal or near the maximum value. There are a few β-lactam substrates which can be used for in vitro assays of MBLs inhibitors. CENTA,[47] a type of cephalosporin, and Penicillin G (benzyl penicillin)[48] are well-known substrates due to commercial availability, inexpensive prices and comfort of their syntheses. For this study, Penicillin G was used as CENTA was not compatible with the inhibitor type as reported by Arjomandi et al.[1] The monitoring of hydrolysis of benzyl penicillin by the synthesized compounds was carried out in UV plate at wavelength 235 nm as no chromosphere is released (Figure 7). The concentration of benzyl penicillin is reduced upon hydrolysis by IMP-1 causing a decrease in the absorption at 235 nm over the time, thereby allowing a way to monitor the reaction. Inhibitors of metallo-β-lactamase decrease the rate of hydrolysis of benzyl penicillin, thus, providing a way of measuring the activities of inhibitors against MBLs.
Benzyl penicillin solutions were prepared fresh at the time of assay as their activities will change and stop after 24 h even with keeping in the fridge.[1] In the first step, the inhibitory activities (IC50 values) of the inhibitors 2a–k were measured by a screening assay which evaluated the residual activity of the enzyme. […] Further kinetic analyses then allowed the determination of Kic values of these compounds based on the procedure reported by Arjomandi et al.[1] Inhibition assays for IMP-1 were performed in 96 well 400 µL UV multi-titre plates using a UV multi-plate spectrophotometer. The hydrolysis rate of benzyl penicillin (penicillin G sodium salt) was measured at λ = 235 nm.[49] The initial screening assay (IC50 values) was performed in duplicate, with benzyl penicillin as the substrate and HEPESX (50 mM HEPES, 0.1 M NaCl, […], pH 7.0) as the buffer at 25 °C. The final concentrations of enzyme and benzyl penicillin were 10 nM and 500 µM, respectively. Bovine serum albumin (a final concentration of 20 µg/mL) was added to the enzyme for stability. For each well, 196 µL substrate and 4 µL inhibitor were added followed by the addition of 200 µL of enzyme. The rate of the hydrolysis of substrate was recorded for 5 min. To measure Kic value, four solutions with different concentrations for each molecule were prepared and then were assayed based on the aforementioned procedure while the concentrations of substrate in wells were 200, 400, 600, 800 and 1000 µM. The raw kinetic data were analysed by non-linear regression using the Win Curve Fit program (Kevin Raner Software) and the Kic value was calculated for each molecule.[1] The Kic values of molecules 2a–k are in the range of 1.04–4.77 µM which was unexpected based on the computational modelling results. Although the introduced compounds are still potent enzyme-based inhibitors, they are nearly at least ten times less as potent as the lead inhibitor is. Due to the less inhibition activities of the synthesized molecules in compare to the reference compound, their cell-based assays have not carried out.

IMP-1 [2] = target: T1, IMP-1; details: read-out: Kic; against IMP-1; reference inhibitor; cited from earlier work

T1 sequence (P52699 22-246 limits assumed): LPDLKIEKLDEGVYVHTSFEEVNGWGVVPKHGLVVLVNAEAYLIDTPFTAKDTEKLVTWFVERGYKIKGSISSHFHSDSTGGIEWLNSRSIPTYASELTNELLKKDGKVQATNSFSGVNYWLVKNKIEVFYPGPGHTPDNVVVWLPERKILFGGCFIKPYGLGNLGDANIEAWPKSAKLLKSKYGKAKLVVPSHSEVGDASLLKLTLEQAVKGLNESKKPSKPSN

SMILES | Ki (IMP-1 [1]) [nM] | Ki (IMP-1 [2]) [nM]
O=C(CS)N[C@@H](Cc1ccc(OCc2ccccc2[N+](=O)[O-])cc1)C(=O)O [Compound 2g, (S)-2-(2-Mercaptoacetamido)-3-(4-((2-nitrobenzyl)oxy)phenyl)propanoic acid] | 1650 ± 340 | 
O=C(CS)N[C@@H](Cc1ccc(OCc2cccc(Br)c2)cc1)C(=O)O [Compound 2j, (S)-3-(4-((3-Bromobenzyl)oxy)phenyl)-2-(2-mercaptoacetamido)propanoic acid] | 3140 ± 710 | 
O=C(CS)N[C@@H](Cc1ccc(OCc2ccccc2Cl)cc1)C(=O)O [Compound 2d, (S)-3-(4-((2-Chlorobenzyl)oxy)phenyl)-2-(2-mercaptoacetamido)propanoic acid] | 1810 ± 900 | 
O=C(CS)N[C@@H](Cc1ccc(OCc2ccc(Cl)cc2)cc1)C(=O)O [Compound 2f, (S)-3-(4-((4-Chlorobenzyl)oxy)phenyl)-2-(2-mercaptoacetamido)propanoic acid] | 3200 ± 590 | 
O=C(CS)N[C@@H](Cc1ccc(OCc2ccc([N+](=O)[O-])cc2)cc1)C(=O)O [Compound 2i, (S)-2-(2-Mercaptoacetamido)-3-(4-((4-nitrobenzyl)oxy)phenyl)propanoic acid] | 3200 ± 620 | 
Cc1ccc(COc2ccc(C[C@H](NC(=O)CS)C(=O)O)cc2)cc1 [Compound 2c, (S)-2-(2-Mercaptoacetamido)-3-(4-((4-methylbenzyl)oxy)phenyl)propanoic acid] | 1070 ± 210 | 
O=C(CS)N[C@@H](Cc1ccc(OCc2ccccc2)cc1)C(=O)O [Compound 1, L-benzyl tyrosine thiol carboxylic acid] |  | 86 ± 24
Cc1cccc(COc2ccc(C[C@H](NC(=O)CS)C(=O)O)cc2)c1 [Compound 2b, (S)-2-(2-Mercaptoacetamido)-3-(4-((3-methylbenzyl)oxy)phenyl)propanoic acid] | 1150 ± 490 | 
O=C(CS)N[C@@H](Cc1ccc(OCc2ccc(Br)cc2)cc1)C(=O)O [Compound 2k, (S)-3-(4-((4-Bromobenzyl)oxy)phenyl)-2-(2-mercaptoacetamido)propanoic acid] | 3300 ± 900 | 
O=C(CS)N[C@@H](Cc1ccc(OCc2cccc([N+](=O)[O-])c2)cc1)C(=O)O [Compound 2h, (S)-2-(2-Mercaptoacetamido)-3-(4-((3-nitrobenzyl)oxy)phenyl)propanoic acid] | 2860 ± 1230 | 
O=C(CS)N[C@@H](Cc1ccc(OCc2cccc(Cl)c2)cc1)C(=O)O [Compound 2e, (S)-3-(4-((3-chlorobenzyl)oxy)phenyl)-2–(2-mercaptoacetamido)propanoic acid] | 4770 ± 2810 | 
Cc1ccccc1COc1ccc(C[C@H](NC(=O)CS)C(=O)O)cc1 [Compound 2a, (S)-2-(2-Mercaptoacetamido)-3-(4-((2-methylbenzyl)oxy)phenyl)propanoic acid] | 1040 ± 280 | 
